According to publication PMC10450872 (ACS Central Science, 2023):
pEC50: −log10 of the molar value. Values joined by “and” are separate entries in the source; they are usually repeats but may differ in a detail not shown here. Equal entries are not always repeated.

What was measured:
[1] = target: T1, hKOR (OPRK1) (Homo sapiens, UniProt P41145); assay: cell-based; settings: for Emax: CHO, read-out: cAMP Emax
T1 construct: 3HA (triple haemagglutinin tag); expressed in transfected cells

[2] = target: T2, hKOR (Homo sapiens, UniProt P41145); assay: cell-based; settings: for Emax: read-out: βarrestin2 Emax; for pEC50: βarrestin2 pEC50
T2 construct: β-galactosidase enzyme fragment for EFC (ProLink tag of the PathHunter system; name and presence on the receptor from own knowledge); host or cells: U2OS-β-arrestin2-EFC-hKOR (PathHunter) cells
T2 sequence (P41145 whole entry, the tested form may be a part): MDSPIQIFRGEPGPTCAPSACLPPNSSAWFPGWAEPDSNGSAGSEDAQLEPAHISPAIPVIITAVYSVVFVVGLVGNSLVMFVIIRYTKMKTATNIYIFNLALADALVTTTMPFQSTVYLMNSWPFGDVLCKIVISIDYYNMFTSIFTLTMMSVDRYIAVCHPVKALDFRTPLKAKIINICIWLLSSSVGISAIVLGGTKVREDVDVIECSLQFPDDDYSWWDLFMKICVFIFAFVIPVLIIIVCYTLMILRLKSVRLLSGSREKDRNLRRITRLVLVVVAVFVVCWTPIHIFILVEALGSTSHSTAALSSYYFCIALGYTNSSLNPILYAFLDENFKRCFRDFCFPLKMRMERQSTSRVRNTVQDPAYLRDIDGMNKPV

[3] = target: T2, hKOR; assay type: cell-based
[4] = mean EC50 of inhibition of forskolin-stimulated cAMP accumulation via KOR
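For Emax in this document: 100% = maximum response to 10 µM U69,593.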

T1 sequence (P41145 whole entry): as the sequence (P41145 whole entry, the tested form may be a part) above

| Structure (SMILES) | Emax [1] [%] | pEC50 ([1]; cAMP pEC50) | Emax [2] [%] | pEC50 [2] | Bias Factor [3] | ΔΔLogτ/KA (cAMP/βarr2) [3] | increase of potency on replacement of the 3-furyl [1] [fold] | pEC50 [1, 4] | cAMP Emax [1] | βarrestin2 Emax [2] |
| --- | --- | --- | --- | --- | --- | --- | --- | --- | --- | --- |
| COC(=O)[C@@H]1C[C@H](OC(C)=O)C(=O)[C@@H]2[C@H]3C[C@@H](c4cccc(O)c4)CC(=O)[C@@H]3CC[C@]21C [22a] | 97 | 6.51 | 81 | 5.23 | 0.72 | 1.397 |  |  |  |  |
| COC(=O)[C@@H]1C[C@H](OC(C)=O)C(=O)[C@@H]2[C@H]3C[C@@H](c4ccc(Cl)cc4)CC(=O)[C@@H]3CC[C@]21C [compound 29] | 103 | 7.17 | 51 | 6.07 | 3.16 | 0.316 |  |  |  |  |
| COC(=O)C1CC(OC(C)=O)C(=O)C2C3CC(c4ccccc4)CC(=NOC(C)=O)C3CCC12C (centres unmarked) [compound 39] | 105 | 8.90 | 83 | 7.01 | 5.43 | 0.184 |  |  |  |  |
| COC(=O)[C@@H]1C[C@H](OC(C)=O)C(=O)[C@@H]2[C@H]3C[C@@H](c4c[nH]c5ccccc45)CC(=O)[C@@H]3CC[C@]21C [compound 27] | 92 | 6.48 | 14 | 5.69 | 3.96 | 0.252 |  |  |  |  |
| COC(=O)[C@@H]1C[C@H](OC(C)=O)C(=O)[C@@H]2[C@H]3C[C@@H](c4ccsc4)CC(=O)[C@@H]3CC[C@]21C [compound 19] | 101 | 8.83 | 105 | 7.14 | 1.11 | 0.898 |  |  |  |  |
| COC(=O)[C@@H]1C[C@H](OC(C)=O)C(=O)[C@@H]2[C@H]3C[C@H](c4cccc(O)c4)CC(=O)[C@@H]3CC[C@]21C [22b] | 95 | 6.04 |  |  |  |  |  |  |  |  |
| COC(=O)[C@@H]1C[C@H](OC(C)=O)C(=O)[C@@H]2[C@H]3C[C@@H](C4=CCCCC4)CC(=O)[C@@H]3CC[C@]21C [compound 32] |  |  |  |  |  |  | 20 | 9.52 |  |  |
| COC(=O)[C@@H]1C[C@H](OC(C)=O)C(=O)[C@@H]2[C@H]3CC=CC(=O)[C@@H]3CC[C@]21C [17a] | 96 | 4.97 |  |  |  |  |  | < 5.00 |  |  |
| COC(=O)[C@@H]1C[C@H](OC(C)=O)C(=O)[C@@H]2[C@H]3C[C@H](c4ccccc4)CC(=O)[C@@H]3CC[C@]21C [24b] | 100 | 7.20 | 109 | 6.05 | 0.32 | 3.153 |  |  |  |  |
| COC(=O)C1CC(OC(C)=O)C(=O)C2C3CC(c4ccoc4)CC(O)C3CCC12C (centres unmarked) [41b] | 103 | 9.44 | 86 | 7.85 | 2.06 | 0.486 |  | 9.40 |  |  |
| CON=C1CC(c2ccccc2)CC2C1CCC1(C)C(C(=O)OC)CC(OC(C)=O)C(=O)C21 (centres unmarked) [compound 38] | 100 | 8.53 | 98 | 6.61 | 2.28 | 0.439 |  |  |  |  |
| C#CC1(O)CC(c2ccccc2)CC2C1CCC1(C)C(C(=O)OC)CC(OC(C)=O)C(=O)C21 (centres unmarked) [40a] |  |  |  | 6.13 | 9.83 and 7.4–9.8 | 0.102 |  | 8.16 | 105 | 80 |
| COC(=O)[C@@H]1C[C@H](OC(C)=O)C(=O)[C@@H]2[C@H]3C[C@@H](c4ccncc4)CC(=O)[C@@H]3CC[C@]21C [compound 21] | 93 | 6.52 | 94 | 5.48 | 0.23 | 4.409 |  |  |  |  |
| COC(=O)[C@@H]1C[C@H](OC(C)=O)C(=O)[C@@H]2[C@H]3C[C@@H](c4ccccc4)CC(=O)N[C@@H]3CC[C@]21C [compound 35] | 107 |  | 67 | 5.74 | 5.48 | 0.182 |  | 7.34 |  |  |
| COC(=O)C1CC(OC(C)=O)C(=O)C2C3CC(c4ccoc4)CC(O)C3CCC12C (centres unmarked) [41a] |  | 8.30 |  | 6.91 | 1.33 | 0.754 |  | 8.29 | 102 | 85 |
| C#CC1(O)CC(c2ccccc2)CC2C1CCC1(C)C(C(=O)OC)CC(OC(C)=O)C(=O)C21 (centres unmarked) [40b] | 104 |  | 92 | 6.10 | 7.44 and 7.4–9.8 | 0.134 |  | 8.36 |  |  |
| COC(=O)[C@@H]1C[C@H](OC(C)=O)C(=O)[C@@H]2[C@H]3C[C@@H](c4ccccc4)CC(=O)[C@@H]3CC[C@]21C [24a] | 98 | 8.04 | 120 | 6.66 | 0.39 | 2.554 |  |  |  |  |
| COC(=O)[C@@H]1C[C@H](OC(C)=O)C(=O)[C@@H]2[C@H]3C[C@@H](c4ccc(C)cc4)CC(=O)[C@@H]3CC[C@]21C [compound 28] | 93 | 6.40 | 14 | 5.73 | 3.88 | 0.258 |  |  |  |  |
| COC(=O)[C@@H]1C[C@H](OC(C)=O)C(=O)[C@@H]2[C@H]3C[C@@H](c4ccoc4)CC(=O)[C@@H]3CC[C@]21C [compound 1, O6C-20-nor-SalA] | 96 |  | 108 |  | 0.34 |  |  |  |  |  |
| COC(=O)[C@@H]1C[C@H](OC(C)=O)C(=O)[C@@H]2[C@H]3C[C@@H](c4ccnc5ccccc45)CC(=O)[C@@H]3CC[C@]21C [compound 25] | 95 | 6.20 |  |  |  |  |  |  |  |  |
| COC(=O)[C@@H]1C[C@H](OC(C)=O)C(=O)[C@@H]2[C@H]3C[C@@H](c4coc5ccccc45)CC(=O)[C@@H]3CC[C@]21C [compound 26] | 104 | 7.38 | 100 | 5.63 | 1.87 | 0.536 |  |  |  |  |
| COC(=O)[C@@H]1C[C@H](OC(C)=O)C(=O)[C@@H]2[C@H]3C[C@@H](Sc4ccccc4)CC(=O)[C@@H]3CC[C@]21C [compound 33] | 92 |  | 131 | 5.37 | 0.51 | 1.946 |  | 7.02 |  |  |
| COC(=O)[C@@H]1C[C@H](OC(C)=O)C(=O)[C@@H]2[C@H]3C[C@@H](c4ccnc(OC)c4)CC(=O)[C@@H]3CC[C@]21C [compound 23] |  |  |  |  |  |  |  | 5.47 |  |  |
| COC(=O)[C@@H]1C[C@H](OC(C)=O)C(=O)[C@@H]2[C@H]3C[C@H](c4ccoc4)CC(=O)[C@@H]3CC[C@]21C [compound 18] | 91 |  | 91 |  | 0.23 |  |  |  |  |  |
| COC(=O)C1CC(OC(C)=O)C(=O)C2C3CC(c4ccoc4)CC(=NO)C3CCC12C (centres unmarked) [compound 36] | 105 | 9.46 | 83 | 7.89 | 2.66 | 0.375 |  | 9.40 |  |  |
| COC(=O)[C@@H]1C[C@H](OC(C)=O)C(=O)[C@@H]2[C@H]3C[C@@H](c4cccnc4)CC(=O)[C@@H]3CC[C@]21C [compound 20] | 105 | 6.33 | 88 | 5.69 | 0.17 | 5.896 |  |  |  |  |
| COC(=O)[C@@H]1C[C@H](OC(C)=O)C(=O)[C@@H]2[C@H]3C[C@@H](c4cccc(Cl)c4)CC(=O)[C@@H]3CC[C@]21C [compound 31] | 103 | 8.37 | 123 | 6.20 | 2.50 | 0.399 |  | 8.38 |  |  |
